Measurements as given in patent US8722736B2, “Multi-dose concentrate esmolol with benzyl alcohol” (Baxter International Inc., priority 2007, dated 2014).

Assay: pH dependence of esmolol degradation
Assay type: physicochemical
Source text: The concentrate of present invention can also include a pharmaceutically acceptable buffer to aid in maintaining the pH in a range of from about 3.5 to about 7.0. Preferably, the pH is maintained between about 4.5 and about 5.5, more preferably between 4.9 and 5.1. […] Suitable buffers are those buffers that provide sufficient buffering capacity at the desired pH range and are pharmaceutically acceptable for injection into a patient. Examples of buffers useful in the present invention include, but are not limited to, acetate, glutamate, citrate, tartrate, benzoate, lactate, gluconate, phosphate and glycine and conjugate acids thereof. The concentration of the buffer can be from about 0.005 to about 2 M. In a preferred embodiment, the buffering agent comprises a combination of sodium acetate and glacial acetic acid. A preferred combination of buffers can include sodium acetate at from about 0.005 to about 0.3 M and glacial acetic acid at from about 0.05 to about 0.3 M.

Question: With `COC(=O)CCc1ccc(OCC(O)CNC(C)C)cc1.Cl` (stereo not shown) [esmolol, methyl3-[4-[2-hydroxy-3-(isopropylamino)propoxy]phenyl]propionate hydrochloride] as the molecule, how does the “pH at which esmolol is most stable” value read?
Answer: about 5.0
